Where two headings read alike, the source gives them in different places. One block for each molecule: values may come before it.
How the values were obtained:
[1] = tested on: AML cell lines; test: cell killing and apoptosis in AML cell lines (Acridine Orange/Ethidium Bromide); type: cell-based, human; settings: cultured HEL cells
Protocol: To evaluate the sensitivity spectrum of AML cell lines to HSP90 inhibitors, and to investigate a possible relationship between their genetic background and induction of apoptosis by HSP90 therapy, we made use of a varied cell panel. […]
A ten-fold, in MOLM-13 and M0-91, and two-fold, in Kasumi-1 and SKNO-1, increase in caspase-3,7 activation was observed as early as 24 h. Essentially no live cells were detected for the M0-91 cell line after 48 h of HSP90 inhibitor treatment. […]
Cells were treated for 24, 48 or 72 h with vehicle (DMSO) or inhibitors as indicated. Following staining with Acridine Orange and Ethidium Bromide (1:1 mix of 100 µg/ml), cells were visualized with a fluorescent microscope (Zeiss Axiovert 40 CFL) and counted. Percentage of apoptotic cells was determined from 200-300 cells counted in each group. The percentage of apoptotic cells was calculated as: % Apoptotic cells=(total number of cells with apoptotic nuclei/total number of cells counted)×100.

[2] = tested on: oncogenic HSP90; test: PU-FITC binding to EpCAM+ circulating tumor cells relative to leukocytes; type: cell-based, human; settings: patient with HER2+ metastatic breast cancer
Protocol: FIG. 20. PU-H71-FITC2 accumulation in EpCAM+ Circulating Tumor Cells: PBMC's isolated from whole blood were pre-treated with PU-FITC or controls (PU-FITC9, DMSO, 1 μM/2×10^6 cells/ml, 4 hrs). Cells were then stained with CD45, CD14 and EpCAM antibodies. (A) Cells are gated to exclude dead cells. Viable cells are then gated to determine EpCAM+ vs CD45+ cells. Monocytes are excluded from the analysis by gating the CD45+ cells further as FSC vs. CD14. (B) Histogram plots showing the PU-FITC Median florescence intensity (MFI) of CD45+CD14− cells (blue) and EpCAM+ cells (Red). The drug accumulation in EpCAM+ cells is calculated as the ratio of MFI EpCAM+/MFI CD45+CD14− (circulating tumor cells/leukocytes) after subtracting the values of the DMSO and PU-FITC9 controls (used to control for non-specific and background binding). […]
All experimental blood sampling procedures were performed under the Institutional Review Board-approved protocols at Memorial Sloan Kettering Cancer Center. […] PBMC's are isolated on ficoll gradients, cells are counted and viability determined by trypan blue dye exclusion assay. […] Values are calculated as a ratio of the MFI of Tumor (EpCAM+CD45−CD14−): MFI of EpCAM−CD45+CD14− cells. […] This allows quantitation of the FITC fluorescence intensity in molecules of equivalent soluble fluorochrome (MESF units). […]

[3] = tested on: oncogenic HSP90; test: PU-FITC binding in primary leukemia samples, blasts relative to normal lymphocytes (flow cytometry); type: cell-based, human; settings: blast crisis CML (bcCML) cells
[4] = tested on: MOLM-13 cells; type: cell-based, human
[5] = tested on: HSP90; test: concomitant binding to HSP90 and streptavidin in live K562 cells; type: cell-based; settings: for HSP90-streptavidin binding with K562 cells: live K562 cells; for binding in live K562 cells: 100 μM, 4 h
Excerpt: Having shown that some of the molecules bind concomitantly to HSP90 and streptavidin, we next investigated whether this can similarly be accomplished in live cells.

[6] = mouse, in vivo
[7] = in vivo; settings: 3×Tg AD, mouse, ip, 50 mg/kg, AUC 0 to 48 h
[8] = [124I]-PU-H71 PET in cancer patients, tumor exposure to PU-H71; type: in vivo, human; settings: human blood circulation
[9] = tested on: HSP90; test: 131I-PU-H71 saturation binding in intact cancer cells; type: cell-based; settings: MDA-MB-468 cells

Structure (SMILES): O=c1[nH]c2ccccc2n1C1CCN(Cc2ccc(-c3nc4cc5[nH]cnc5cc4nc3-c3ccccc3)cc2)CC1 [AKTi]
cells committed to undergo apoptosis [1]: little to no effect

Structure (SMILES): CC(C)N(CCCn1c(Sc2cc3c(cc2I)OCO3)nc2c(N)ncnc21)C(=S)Nc1ccc(-c2c3ccc(=O)cc-3oc3cc(O)ccc23)c(C(=O)O)c1 [PU-H71-FITC2]
binding of circulating tumor cells relative to leukocytes (CD45+CD14−) [2]: around 84 fold
binding relative to normal lymphocytes [3]: over 4 fold
viability of MOLM-13 cells [4]: decrease the viability of MOLM-13 cells

Structure (SMILES): CC(C)N(CCCn1c(Sc2cc3c(cc2I)OCO3)nc2c(N)ncnc21)C(=O)CCCC[C@@H]1SC[C@@H]2NC(=O)N[C@@H]21 [PU-H71-biotin2]
HSP90-streptavidin binding with K562 cells [5]: No

Structure (SMILES): Nc1ncnc2c1nc(Sc1cc3c(cc1I)OCO3)n2CCCNC(=O)CCCC[C@@H]1SC[C@@H]2NC(=O)N[C@@H]21 [PU-H71-biotin3]
HSP90-streptavidin binding with K562 cells [5]: No

Structure (SMILES): Nc1ncnc2c1nc(Sc1cc3c(cc1I)OCO3)n2CCCNC(=O)CCCCCNC(=O)CCCC[C@@H]1SC[C@@H]2NC(=O)N[C@@H]21 [PU-H71-biotin4]
HSP90-streptavidin binding with K562 cells [5]: No

Structure (SMILES): Nc1ncnc2c1nc(Sc1cc3c(cc1I)OCO3)n2CCCNC(=O)CCCCCNC(=O)CCCCCNC(=O)CCCC[C@@H]1SC[C@@H]2NC(=O)N[C@@H]21 [PU-H71-biotin5]
binding in live K562 cells [5]: able to permeate the cell membrane
HSP90-streptavidin binding with K562 cells [5]: Yes

Structure (SMILES): Nc1ncnc2c1nc(Sc1cc3c(cc1I)OCO3)n2CCCNC(=O)CCOCCOCCOCCOCCNC(=O)CCCC[C@@H]1SC[C@@H]2NC(=O)N[C@@H]21 [PU-H71-biotin6]
band at approximately 90 kDa in live K562 cells ([5]; 0.5 μM): still shows a faint band
binding in live K562 cells [5]: able to permeate the cell membrane
HSP90-streptavidin binding with K562 cells [5]: Yes

Structure (SMILES): CC(C)N(CCCn1c(Sc2cc3c(cc2I)OCO3)nc2c(N)ncnc21)C(=O)CCCCCNC(=O)CCCCCNC(=O)CCCC[C@@H]1SC[C@@H]2NC(=O)N[C@@H]21 [PU-H71-biotin8]
binding in live K562 cells [5]: able to permeate the cell membrane
HSP90-streptavidin binding with K562 cells [5]: Yes

Structure (SMILES): CC(C)N(CCCn1c(Sc2cc3c(cc2I)OCO3)nc2c(N)ncnc21)C(=O)CCOCCOCCOCCOCCNC(=O)CCCC[C@@H]1SC[C@@H]2NC(=O)N[C@@H]21 [PU-H71-biotin9]
binding in live K562 cells [5]: able to permeate the cell membrane
HSP90-streptavidin binding with K562 cells [5]: Yes

Structure (SMILES): Nc1ncnc2c1nc(Sc1cc3c(cc1I)OCO3)n2CCCNCCOCCOCCOCCNC(=O)CCCC[C@@H]1SC[C@@H]2NC(=O)N[C@@H]21 [PU-H71-biotin]
HSP90-streptavidin binding with K562 cells [5]: No

Structure (SMILES): CC(C)N(CCCn1c(Sc2cc3c(cc2I)OCO3)nc2c(N)ncnc21)C(=O)CCCCCNC(=O)CCCC[C@@H]1SC[C@@H]2NC(=O)N[C@@H]21 [PU-H71-blotin7]
HSP90-streptavidin binding with K562 cells [5]: No

cortex AUC relative to plasma AUC [6]: 2.5 times
AUC(0-t) ([7]; exposure of the cortex): 17.5 µM·h
AUC(0-t) ([7]; exposure of the plasma): 7.1 µM·h
Structure (SMILES): CC(C)(C)CNCCn1c(Sc2cc3c(cc2I)OCO3)nc2c(N)ncnc21 [PU-HZ151]

Structure (SMILES): CC(C)NCCCn1c(Sc2cc3c(cc2[124I])OCO3)nc2c(N)ncnc21 [[^124I]-PU-H71]
tumor uptake from ROI analysis (4 h): 0.35±0.07 % ID/g
activity in ROI circumscribing the entire mouse (4 h PET): 40-50 % of the administered activity
concentration in tumor relative to bone (4 h p.a.): 9 fold
concentration in tumor relative to brain (4 h p.a.): 40 fold
concentration in tumor relative to heart (4 h p.a.): 10 fold
concentration in tumor relative to muscle (4 h p.a.): 18 fold
concentration in tumor relative to spleen (4 h p.a.): 6 fold
[Atumor] activity concentration in tumor (24 h): ~0.14±0.05 % ID/g
tumor uptake from ROI analysis (24 h): 0.083±0.02 % ID/g
tumor uptake from ROI analysis (48 h): 0.058±0.02 % ID/g
tumor uptake from ROI analysis (72 h): 0.031±0.01 % ID/g
tumor uptake from ROI analysis (100 h): 0.024±0.008 % ID/g
maximum thyroid activity (between 4 and 28 h, no potassium iodide): < 0.4 % of the administered activity
tumor-to-blood activity concentration ratio (by ~12 h postinjection): ≥ 10
time by which cleared from MDA-MB-468 tumors (post-administration): ≤ 150 h
blood t1/2, rapid clearance [8]: ≈ 20 min

Structure (SMILES): CC(C)NCCCn1c(Sc2cc3c(cc2[131I])OCO3)nc2c(N)ncnc21 [^131I-PU-H71]
available cellular binding sites bound per cell [9]: ≤ 5.5×10^6
fraction of total cellular HSP90 bound [9]: 26.6-33.5%
